Key:
[1] = system: right atrial muscle; experiment: Active potential duration (APD90) of isolated right atrial muscle under electrical stimulation; type: cell-based, beagle; details: 90 minutes after adding
Procedure: A beagle was used in the experimental test. Its right atrial. muscle was surgically extracted, and a sample was fixed with pins within an experimental vessel which is perfused with Tyrode liquid (10 ml/min). Using an electrical stimulator, the atrial muscle was stimulated by a voltage two times greater than that of generating an active potential, and rectangular waves having pulse. width of 2 msec in a frequency of 2 Hz, and the generated active potential was measured by a glass microelectrode inserted into the cells. Compound 1 was added into the experimental vessel with condensations of 0.3 μM and 1 μM. At 90 minutes before and after adding the compound, the sample was excited with various excitation frequencies, and each active potential was recorded to. determine the duration (90% recovery time; APD90).

[2] = system: atrial fibrillation induced by means of electrical stimulation; experiment: Atrial fibrillation induced by electrical stimulation in chronically paced right atrium; type: in vivo, hybrid of a labrador and beagle
Source text: In the experimental test, a hybrid of a labrador and beagle was used. An electrode for electrical excitation was embedded in the right atrium. From a week after the operation, the right atrium was subjected to a continuous pacing at an excitation frequency of 400 or 600 bpm by an external pacemaker. Further, for 31 day, the right atrium was subjected to a pacing giving a burst excitation (10 mA,50 Hz,1 sec) 5 days a week and several hours a day. Compound 1 was continuously injected into forearm vein (0.3mg/kg/min×2 min+0.03 mg/kg/min). At 20 minutes before and after administrating, the excitation current (50 Hz, 1 sec) was increased from 3 mA to 10 mA in increments of 0.5 mA to determine each atrial fibrillation threshold (AFT). Then, the atrial fibrillation duration (AF duration) and the interval (FF interval) of atrial fibrillation waves, which were generated by the excitation current of 10 mA, were measured. In FIG. 1, the mean value of the AF duration before administration was 35.1±9.0 sec, and the mean value after administration was 12.1±1.9 sec. In FIG. 2, the mean value of the FF interval before administration was 51.3±1.7 msec, and the mean value after administration was 61.7±1.8 msec.

Question: With `COc1ccc2c(c1)CN(C(=O)CCN1CCC(Cc3ccccc3)CC1)CCS2` [Compound 1, 4-[3-(4-benzylpiperidine-1-yl)propionyl]-7-methoxy-2,3,4,5-tetrahydro-1,4-benzothiazepine] as the molecule, how does the “duration (APD90) change after addition” value ([1]; 0.3 μM, excitation frequency 0.67 Hz) read?
Answer: 106.0 ± 2.01%

Question: And the “duration (APD90) change after addition” value ([1]; 0.3 μM, excitation frequency 1 Hz)?
Answer: 110.1 ± 2.75%

Question: And the “duration (APD90) change after addition” value ([1]; 0.3 μM, excitation frequency 2 Hz)?
Answer: 113.0 ± 1.48%

Question: And the “duration (APD90) change after addition” value ([1]; 0.3 μM, excitation frequency 3.33 Hz)?
Answer: 111.5 ± 10.52%

Question: What about the “duration (APD90) change after addition” value ([1]; 1 μM, excitation frequency 0.67 Hz) of the same molecule?
Answer: 112.9 ± 6.47%

Question: And the “duration (APD90) change after addition” value ([1]; 1 μM, excitation frequency 1 Hz)?
Answer: 111.3 ± 5.34%

Question: What about the “duration (APD90) change after addition” value ([1]; 1 μM, excitation frequency 2 Hz) of the same molecule?
Answer: 118.1 ± 2.88%

Question: What about the “duration (APD90) change after addition” value ([1]; 1 μM, excitation frequency 3.33 Hz) of the same molecule?
Answer: 124.7 ± 9.40%

Question: And the “atrial fibrillation duration (AF duration), mean value after administration” value ([2]; i.v. 0.3 mg/kg/min x 2 min + 0.03 mg/kg/min, 20 minutes after administrating, excitation current 10 mA, before administration 35.1±9.0 sec)?
Answer: 12.1 ± 1.9 s

Question: And the “interval of atrial fibrillation waves (FF interval), mean value after administration” value ([2]; i.v. 0.3 mg/kg/min x 2 min + 0.03 mg/kg/min, 20 minutes after administrating, excitation current 10 mA, before administration 51.3±1.7 msec)?
Answer: 61.7 ± 1.8 ms

Question: And the “atrial fibrillation threshold (AFT) after administration” value ([2]; i.v. 0.3 mg/kg/min x 2 min + 0.03 mg/kg/min, 20 minutes after administrating, increased from 7 mA before)?
Answer: 10 mA

Question: What about the “extension of FF interval after administration” value ([2]; i.v. infusion, excitation current 10 mA, FIG. 2) of the same molecule?
Answer: about 20%
